Tested on: mice with idiopathic pulmonary fibrosis
Assay: Single/combination administration of pirfenidone and Bifidobacterium longum RAPO in idiopathic pulmonary fibrosis mice (intratracheal BLM 2 U/mouse kg)
Format: in vivo
Details: for pulmonary fibrosis: FIG. 3
Description: To determine whether or not administration of a combination of pirfenidone (PFD), which is a conventional approved and used drug for pulmonary fibrosis, with Bifidobacterium longum RAPO, has a synergistic therapeutic effect due to Bifidobacterium longum RAPO, the inhibitory effects on pulmonary fibrosis after single and combination administration of PFD and Bifidobacterium longum were compared and evaluated in mice with idiopathic pulmonary fibrosis.
Idiopathic pulmonary fibrosis was induced by a single intratracheal injection of 50 μL (2 U/mouse kg) of BLM into 8-week-old male C57BL/6 mice to induce pulmonary fibrosis. Pirfenidone (PFD) and Bifidobacterium longum RAPO were administered orally 5 times a week for a total of 2 weeks, starting 7 days after inducing pulmonary fibrosis with BLM until the 21st day, the end date of the experiment. The administration groups and doses were as follows: 1) Normal control group: normal mice that were not administered any treatment; 2) disease control group: IPF mice administered vehicle containing neither PFD nor Bifidobacterium longum RAPO; 3) P100 group: IPF mice administered PFD 100 mg/mouse kg; 4) P200 group: IPF mice administered PFD 200 mg/mouse kg; 5) RAPO-A group: IPF mice administered Bifidobacterium longum RAPO 1×10^8 CFU/mouse; 6) RAPO-B group: IPF mice administered Bifidobacterium longum RAPO 5×10^8 CFU/mouse; 8) Comb A group: IPF mice administered a combination of PFD 100 mg/mouse kg and Bifidobacterium longum RAPO 1×10^8 CFU/mouse; 7) Comb B group: IPF mice administered a combination of 100 mg/mouse kg and Bifidobacterium longum RAPO 5×10^8 CFU/mouse. Efficacy evaluation was performed as follows. Lung tissues of mice with fibrosis induced on the 21st day after the start of BLM administration were sampled and fixed with formalin to form paraffin tissue blocks. The formed paraffin blocks were cut into 5 μm thick sections with a microtome and stained with Masson-Trichrome (MT), and the degree of pulmonary fibrosis was evaluated by analysis of an Ashcroft score, a collagen area, and an alveoli area.

[1] = P100 group: PFD 100 mg/mouse kg alone, compared to vehicle group

Cc1ccc(=O)n(-c2ccccc2)c1 [PFD, pirfenidone]
pulmonary fibrosis amelioration relative to P200 group (P100 group: PFD 100 mg/mouse kg alone, compared to P200 group): did not ameliorate pulmonary fibrosis comparable to the P200 group
Ashcroft score [1]: improvement
collagen area [1]: improvement
pulmonary fibrosis [1]: also alleviated pulmonary fibrosis
pulmonary fibrosis (P200 group: PFD 200 mg/mouse kg alone, oral, 5 times a week, 2 weeks, compared to vehicle group): significantly alleviated pulmonary fibrosis
